The results in this text go back to patent publication EP2832348B1, “METHOD FOR DISSOLVING FLAVONOID COMPOUND, CARBON GLYCOSIDE COMPOUND, OR STILBENE COMPOUND AND METHOD FOR PREPARING AN INJECTION OR A POWDER FOR INJECTION” (Kunming Pharmaceutical Corp., priority 2012, dated 2013).

The data set is described as follows: Dissolving the compound with solubilizer in heated, vacuum-stirred water for injection under nitrogen or argon gas (preparation tank). The class given is physicochemical. To be noted: kept at 80 °C. The method, then:
In view of this, the present invention provides a method for dissolving a carbon glycoside compound or a stilbene compound, characterized in that the method comprises the following steps: • heating water for injection to 80-98 °C, followed by stirring under vacuum condition at 30-80 °C, and then adding the carbon glycoside compound or the stilbene compound along with a solubilizer under the protection of nitrogen gas or argon gas to obtain a solution of said compounds; • wherein the solubilizer is one or a mixture of two or more of gastrodin, water-soluble cyclodextrin and ethanol, and wherein the water-soluble cyclodextrin is one or a mixture of two or more of methyl-β-cyclodextrin, thioether-β-cyclodextrin and sulfobutyl ether-β-cyclodextrin; and • wherein the mass ratio of the carbon glycoside compound or the stilbene compound to the solubilizer is 1:1-20.
Disclosed is a method for dissolving a flavonoid compound, a carbon glycoside compound or a stilbene compound, including: • mixing the flavonoid compound, the carbon glycoside compound or the stilbene compound with a solubilizer to obtain a reactant; and • heating water for injection to 80-98 °C, followed by stirring under vacuum conditions at 30-80 °C, and then adding the reactant under the protection of nitrogen gas or argon gas to obtain a solution of the reactant.
Considering the sensitivity to heat or light of the flavonoid compound, the carbon glycoside compound or the stilbene compound, a method is provided by heating water for injection to 80-98 °C to remove dissolved oxygen and other gases in water, which reduces the surface tension of water, increases the contact area of water with the flavonoid compound, the carbon glycoside compound or the stilbene compound, thus increasing the dissolution speed. Meanwhile, pre-heating the water for injection can effectively avoid degradation of the flavonoid compound, the carbon glycoside compound or the stilbene compound due to exposure to the dissolved oxygen, to eliminate unstable factors of the flavonoid compound, the carbon glycoside compound or the stilbene compound. The vacuum conditions can achieve further deoxygenation, facilitating the dissolution of the flavonoid compound, the carbon glycoside compound or the stilbene compound in water. Nitrogen gas or argon gas provides an inert atmosphere, which further reduces the surface tension of the materials, increases the contact area of the flavonoid compound, the carbon glycoside compound or the stilbene compound with water, and increases the dissolution speed.

As for Breviscapine, the “dissolved in (time)” value is “about 5 minutes” (Example 1: 5 g with Gastrodin 100 g, Sodium carbonate 10 g in 1000 ml, water heated to 95 °C, vacuum stirring 10 minutes, nitrogen gas); “about 5 minutes” (Example 2: 25 g with Gastrodin 100 g, Hydroxypropyl-β-cyclodextrin 50 g, Sodium carbonate 1 g in 1000 ml, water heated to 95 °C, vacuum stirring 10 minutes, argon gas); “about 5 minutes” (Example 8 (formula: Wogonin 10 g) with Thioether-β-cyclodextrin 50 g, Sodium bicarbonate 1 g in 1000 ml, water heated to 85 °C, vacuum stirring 30 minutes, argon gas).
Consider Taxinine, for which the “dissolved in (time)” value (Example 16: 12 g with Sulfobutyl ether-β-cyclodextrin 40 g in 1000 ml, water heated to 95 °C, vacuum stirring 10 minutes, nitrogen gas) is recorded as “about 5 minutes”.
